The nature of data set [1]: Oral bioavailability in rat. The data set is classed as in vivo. The method, then:
Experiments are performed 24 hours after implantation of arterial and venous catheters. Test compound is administered orally at 12.5 μmol/kg or intravenously at 5 μmol/kg using the venous catheters, n=3 per group. Arterial blood samples are then taken during […] at 0, 3, 9, 27, 60, 120, 180, 240, 300 and, 360 minutes after administration of the test compound. The oral bioavailability was calculated as the ratio of the AUC (Area under curve) obtained after oral administration over the AUC obtained after intravenous administration for each rat. The parameter AUC was calculated according to the following: AUC: the area under the plasma concentration versus time curve from time zero to the last concentration measured (Clast), calculated by the log/linear trapezoidal method.
The levels of test compound are measured by means of liquid chromatography-mass spectrometry (LC-MS). (Hewlett-Packard 1100MSD Series). The module include a quaternary pump system, vacuum degasser, thermostatted autosampler, thermostatted column compartment, diode array detector and API-ES spray chamber. […]
Extractions procedure: Plasma samples (0.25-0.5 ml) were diluted with water to 1 ml, and 60 pmol (100 μl) internal standard (−)-OSU6241 was added. […] The selective ion (MH^+) was monitored for each Example, and MH^+ 296 for (−)-OSU6241 ((3-[3-(ethylsulfonyl)phenyl]-1-propylpiperidine). […]

Data set [2] is classed as in vitro ADME. Conditions: rat, microsomes, 0.25 h, pH 7.4. As for the experimental part: Rat liver microsomes were isolated as described by Förlin (1980) Effects of Clophen A50, 3-methylcholantrene, pregnenolone-16aq-carbonitrile and Phenobarbital on the hepatic microsomal cytochrome P-450-dependent monooxygenaser system in rainbow trout, salmo garirdneri, of different age and sex. Tox Appl Pharm. 54(3) 420-430, with minor modifications e.g. 3 mL/g liver of a 0.1 M Na/K*PO4 buffer with 0.15 M KCl, pH 7.4, (buffer 1) was added before homogenisation, the homogenate was centrifuged for 20 minutes instead of 15, the supernatant was ultracentrifuged at 100.000 g instead of 105.000 g and the pellet from the ultracentrifugation was resuspended in 1 mL/g liver of 20% v/v 87% glycerol in buffer 1.
1 μL of, 0.2 or 1 mM test substance diluted in water and 10 μL 20 mg/mL rat liver micro-some were mixed with 149 μL 37° C. buffer 1 and the reaction was started by addition of 40 μL 4.1 mg/mL NADPH. After 0 or 15 minutes incubation at 37° C. in a heating block (LAB-LINE, MULTI-BLOK Heater or lab4you, TS-100 Thermo shaker at 700 rpm) the reaction was stopped by addition of 100 μL pure acetonitrile. The protein precipitation was then removed by rejecting the pellet after centrifugation at 10.000 g for 10 minutes (Heraeus, Biofuge fresco) in 4° C. The test compound was analysed using HPLC-MS (Hewlett-Packard 1100MSD Series) with a Zorbax SB-C18 column (2.1*150 mm, 5 μm) using 0.03% formic acid and acetonitrile as mobile phase (gradient) or a Zorbax Eclipse XDB-C18 (3*75 mm, 3.5 μm) using 0.03% acetic acid and acetonitrile as mobile phase (gradient). The 15 min turnover was calculated as the fraction of test compound eliminated after 15 minutes, expressed in percent of 0 min levels, ie 100*[conc test compound at 0 min−concentration at 15 min]/conc at 0 min.
Preparation of liver microsomes was performed as described in Förlin (1980). Protocols for incubation with liver microsomes are referred in Crespi et Stresser (2000), and Renwick et al (2001).

Data set [3] has as its system amphetamine-induced hyper-locomotion. The data set is described as follows: Reduction of amphetamine-induced hyper-locomotion. Format: in vivo, rat. Conditions: rats pretreated with d-amphetamine 1.5 mg/kg i.p., test compound s.c., last 45 minutes of one hour, range covers 95% of fits. From the text: In this model, dopaminergic neurotransmission is increased by systemic administration of d-amphetamine at a dose that is sufficiently high to produce a large increase in locomotor activity. The ability of a compound to antagonize this hyperactivity reflects anti-dopaminergic properties, which are part of the dopaminergic stabiliser profile.
Photobeam sensors were spaced 2.5 cm apart.
For most compounds, the evaluation is based on 16 amphetamine pre-treated animals over the dose range 0, 11, 33 and 100 μmol/kg s.c. in one single experiment, with complementary doses in separate experiments. Calculations are based on distance during the last 45 minutes of one hour of measurement. The distances are normalised to amphetamine-control and fitted by least square minimization to the function “End-(End-Control)/(1+(dose/ED50)^Slope)”. […] To estimate confidence levels for the parameters, the fit is repeated 100 times with a random evenly distributed squared weight (0 to 1) for every measurement value. Presented ED50-ranges cover 95% of these values.

Like-named read-outs stand apart in the source and are kept apart here.

As to `CCN1CCC(O)(c2cccc(C(F)(F)F)c2F)CC1` [Example 3, 4-[2-FLUORO-3-(TRIFLUOROMETHYL)PHENYL]-1-ETHYLPIPERIDIN-4-OL], in data set [1] (in vivo), the bioavailability (commonly the share of a dose that reaches the circulation, judged against a reference dose that is usually intravenous) is approximately 80%. Besides, the “turnover at 15 minutes” value in data set [2] was determined as 8%. As to `CCCN1CCC(O)(c2ccc(F)c(C(F)(F)F)c2)CC1` [Example 8, 4-[4-FLUORO-3-(TRIFLUOROMETHYL)PHENYL]-1-PROPYLPIPERIDIN-4-OL], in data set [1] (plasma, oral 12.5 μmol/kg vs i.v. 5 μmol/kg, AUC ratio, read-out: oral bioavailability), the bioavailability was approximately 29%. Also, in data set [2], the “turnover at 15 minutes” value is listed as 29%. Turning to `COc1cccc(C2(O)CCN(C)CC2)c1OC`, the “ED50 reduction of amphetamine-induced hyper-locomotion” value in data set [3] was “inactive”.

Take `CCCN1CCC(O)(c2cccc(S(C)(=O)=O)c2)CC1` [drawing 51]: the “ED50 reduction of amphetamine-induced hyper-locomotion” value in data set [3] was “inactive”. For the compound `CCCN1CCC(c2ccc(F)c(C(F)(F)F)c2)CC1`, the ED50 (as a rule, the dose at which the effect has come halfway, by size or by number of responders) in data set [3] (Rattus norvegicus) came to 30 µmol/kg.

These data come from patent US7579474B2, “Substituted piperidines as modulators of dopamine neurotransmission” (NSAB, Filial AF Neurosearch AB, Sverige, priority 2004, dated 2009).
